Assay results reported in US8029764B2, “Methods for detection of colorectal cancer” (The Johns Hopkins University, priority 2001, dated 2011).

Test system: colorectal tissue transcripts
Test: SAGE of normal, adenoma and cancer colorectal tissue (transcript tag counts)
Parameters: species or system human
Procedure, shortened: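 Tag counts reflect transcript abundance, each mRNA represented by a 15-base tag near its 3′ end. Excluding MHC tags, linkers and duplicate ditags, libraries were compared statistically: two each of normal epithelium, FAP-derived adenomas (>70% neoplastic) and carcinomas.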

[1] = normal colorectal tissue library 1
[2] = normal colorectal tissue library 2

Sequence: GGTGAAGAGG (chemistry not fully specified)
- AD1 (SAGE tag count) (SAGE library AD1): 5
- AD2 (SAGE tag count) (SAGE library AD2): 3
- CA1 (SAGE tag count) (SAGE library CA1): 10
- CA2 (SAGE tag count) (SAGE library CA2): 9
- NC1 (SAGE tag count) (SAGE library NC1): 16
- NC2 (SAGE tag count) (SAGE library NC2): 32

Sequence: GTAGCAGGTG (chemistry not fully specified)
- AD1 (SAGE tag count) (SAGE library AD1): 11
- AD2 (SAGE tag count) (SAGE library AD2): 7
- CA1 (SAGE tag count) (SAGE library CA1): 7
- CA2 (SAGE tag count) (SAGE library CA2): 7
- NC1 (SAGE tag count) (SAGE library NC1): 24
- NC2 (SAGE tag count) (SAGE library NC2): 27

Sequence: GTATTGGGGC (chemistry not fully specified)
- AD1 (SAGE tag count) (SAGE library AD1): 0
- AD2 (SAGE tag count) (SAGE library AD2): 0
- CA1 (SAGE tag count) (SAGE library CA1): 0
- CA2 (SAGE tag count) (SAGE library CA2): 0
- NC1 (SAGE tag count) (SAGE library NC1): 5
- NC2 (SAGE tag count) (SAGE library NC2): 7

Sequence: GTCATCACCA (chemistry not fully specified; the letters are possibly those of the target site)
- AD1 (SAGE tag count) (SAGE library AD1): 0
- AD2 (SAGE tag count) (SAGE library AD2): 0
- CA1 (SAGE tag count) (SAGE library CA1): 0
- CA2 (SAGE tag count) (SAGE library CA2): 0
- NC1 (SAGE tag count) (SAGE library NC1): 35
- NC2 (SAGE tag count) (SAGE library NC2): 22

Sequence: GTCCGAGTGC (chemistry not fully specified)
- AD1 (SAGE tag count) (SAGE library AD1): 0
- AD2 (SAGE tag count) (SAGE library AD2): 0
- CA1 (SAGE tag count) (SAGE library CA1): 0
- CA2 (SAGE tag count) (SAGE library CA2): 0
- NC1 (SAGE tag count) (SAGE library NC1): 17
- NC2 (SAGE tag count) (SAGE library NC2): 3

Sequence: GTCCTGAACA (chemistry not fully specified)
- AD1 (SAGE tag count) (SAGE library AD1): 0
- AD2 (SAGE tag count) (SAGE library AD2): 0
- CA1 (SAGE tag count) (SAGE library CA1): 0
- CA2 (SAGE tag count) (SAGE library CA2): 0
- NC1 (SAGE tag count) (SAGE library NC1): 7
- NC2 (SAGE tag count) (SAGE library NC2): 3

Sequence: GTGCACTGAG (chemistry not fully specified)
- AD1 (SAGE tag count) (SAGE library AD1): 14
- AD2 (SAGE tag count) (SAGE library AD2): 7
- CA1 (SAGE tag count) (SAGE library CA1): 12
- CA2 (SAGE tag count) (SAGE library CA2): 13
- NC1 (SAGE tag count) (SAGE library NC1): 118
- NC2 (SAGE tag count) (SAGE library NC2, major histocompatibility complex, class I, A): 48
- NC2 (SAGE tag count) (SAGE library NC2, major histocompatibility complex, class I, C): 45

Sequence: GTGCCTGAGA (chemistry not fully specified)
- AD1 (SAGE tag count) (SAGE library AD1): 2
- AD2 (SAGE tag count) (SAGE library AD2): 6
- CA1 (SAGE tag count) (SAGE library CA1): 7
- CA2 (SAGE tag count) (SAGE library CA2): 3
- NC1 (SAGE tag count) (SAGE library NC1): 18
- NC2 (SAGE tag count) (SAGE library NC2): 15

Sequence: GTGGCGGGAA (chemistry not fully specified)
- AD1 (SAGE tag count) (SAGE library AD1): 1
- AD2 (SAGE tag count) (SAGE library AD2): 0
- CA1 (SAGE tag count) (SAGE library CA1): 4
- CA2 (SAGE tag count) (SAGE library CA2): 0
- NC1 (SAGE tag count) (SAGE library NC1): 3
- NC2 (SAGE tag count) (SAGE library NC2): 15

Sequence: GTGGGGGCGC (chemistry not fully specified)
- AD1 (SAGE tag count) (SAGE library AD1): 2
- AD2 (SAGE tag count) (SAGE library AD2): 0
- CA1 (SAGE tag count) (SAGE library CA1): 1
- CA2 (SAGE tag count) (SAGE library CA2): 0
- NC1 (SAGE tag count) (SAGE library NC1): 5
- NC2 (SAGE tag count) (SAGE library NC2): 22

Sequence: GTGGTGGCAG (chemistry not fully specified; the letters are possibly those of the target site)
- AD1 (SAGE tag count) (SAGE library AD1): 1
- AD2 (SAGE tag count) (SAGE library AD2): 1
- CA1 (SAGE tag count) (SAGE library CA1): 10
- CA2 (SAGE tag count) (SAGE library CA2): 3
- NC1 (SAGE tag count) (SAGE library NC1): 29
- NC2 (SAGE tag count) (SAGE library NC2): 11

Sequence: GTGGTTCACG (chemistry not fully specified)
- AD1 (SAGE tag count) (SAGE library AD1): 0
- AD2 (SAGE tag count) (SAGE library AD2): 0
- CA1 (SAGE tag count) (SAGE library CA1): 0
- CA2 (SAGE tag count) (SAGE library CA2): 0
- NC1 (SAGE tag count) (SAGE library NC1): 4
- NC2 (SAGE tag count) (SAGE library NC2): 5
- AD1 (SAGE tag count) (adenoma library 1): 0
- AD2 (SAGE tag count) (adenoma library 2): 0
- CA1 (SAGE tag count) (cancer library 1): 0
- CA2 (SAGE tag count) (cancer library 2): 0
- NC1 (SAGE tag count) [1]: 4
- NC2 (SAGE tag count) [2]: 5

Sequence: GTGTTGGGGG (chemistry not fully specified)
- AD1 (SAGE tag count) (adenoma library 1): 8
- AD2 (SAGE tag count) (adenoma library 2): 6
- CA1 (SAGE tag count) (cancer library 1): 1
- CA2 (SAGE tag count) (cancer library 2): 3
- NC1 (SAGE tag count) [1]: 21
- NC2 (SAGE tag count) [2]: 19

Sequence: GTTTAGAGGG (chemistry not fully specified)
- AD1 (SAGE tag count) (adenoma library 1): 0
- AD2 (SAGE tag count) (adenoma library 2): 0
- CA1 (SAGE tag count) (cancer library 1): 2
- CA2 (SAGE tag count) (cancer library 2): 1
- NC1 (SAGE tag count) [1]: 5
- NC2 (SAGE tag count) [2]: 16

Sequence: TAAATTGCAA (chemistry not fully specified)
- AD1 (SAGE tag count) (adenoma library 1): 8
- AD2 (SAGE tag count) (adenoma library 2): 17
- CA1 (SAGE tag count) (cancer library 1): 5
- CA2 (SAGE tag count) (cancer library 2): 3
- NC1 (SAGE tag count) [1]: 103
- NC2 (SAGE tag count) [2]: 59

Sequence: TAAGGCCTTT (chemistry not fully specified; the letters are possibly those of the target site)
- AD1 (SAGE tag count) (adenoma library 1): 1
- AD2 (SAGE tag count) (adenoma library 2): 0
- CA1 (SAGE tag count) (cancer library 1): 0
- CA2 (SAGE tag count) (cancer library 2): 1
- NC1 (SAGE tag count) [1]: 6
- NC2 (SAGE tag count) [2]: 9

Sequence: TAATCCCAGC (chemistry not fully specified)
- AD1 (SAGE tag count) (adenoma library 1): 8
- AD2 (SAGE tag count) (adenoma library 2): 7
- CA1 (SAGE tag count) (cancer library 1): 16
- CA2 (SAGE tag count) (cancer library 2): 13
- NC1 (SAGE tag count) [1]: 37
- NC2 (SAGE tag count) [2]: 33

Sequence: TAATTTGCAT (chemistry not fully specified)
- AD1 (SAGE tag count) (adenoma library 1): 1
- AD2 (SAGE tag count) (adenoma library 2): 1
- CA1 (SAGE tag count) (cancer library 1): 2
- CA2 (SAGE tag count) (cancer library 2): 0
- NC1 (SAGE tag count) [1]: 25
- NC2 (SAGE tag count) [2]: 2

Sequence: TACGGTGTGG (chemistry not fully specified)
- AD1 (SAGE tag count) (adenoma library 1): 2
- AD2 (SAGE tag count) (adenoma library 2): 2
- CA1 (SAGE tag count) (cancer library 1): 1
- CA2 (SAGE tag count) (cancer library 2): 0
- NC1 (SAGE tag count) [1]: 7
- NC2 (SAGE tag count) [2]: 13

Sequence: TACTCGGCCA (chemistry not fully specified)
- AD1 (SAGE tag count) (adenoma library 1): 0
- AD2 (SAGE tag count) (adenoma library 2): 0
- CA1 (SAGE tag count) (cancer library 1): 1
- CA2 (SAGE tag count) (cancer library 2): 0
- NC1 (SAGE tag count) [1]: 10
- NC2 (SAGE tag count) [2]: 5

Sequence: TACTGTGGAT (chemistry not fully specified)
- AD1 (SAGE tag count) (adenoma library 1): 0
- AD2 (SAGE tag count) (adenoma library 2): 2
- CA1 (SAGE tag count) (cancer library 1): 2
- CA2 (SAGE tag count) (cancer library 2): 1
- NC1 (SAGE tag count) [1]: 4
- NC2 (SAGE tag count) [2]: 11

Sequence: TAGACTAGCA (chemistry not fully specified)
- AD1 (SAGE tag count) (adenoma library 1): 6
- AD2 (SAGE tag count) (adenoma library 2): 6
- CA1 (SAGE tag count) (cancer library 1): 22
- CA2 (SAGE tag count) (cancer library 2): 4
- NC1 (SAGE tag count) [1]: 31
- NC2 (SAGE tag count) [2]: 27

Sequence: TAGGATGGGG (chemistry not fully specified)
- AD1 (SAGE tag count) (adenoma library 1): 4
- AD2 (SAGE tag count) (adenoma library 2): 7
- CA1 (SAGE tag count) (cancer library 1): 6
- CA2 (SAGE tag count) (cancer library 2): 1
- NC1 (SAGE tag count) [1]: 24
- NC2 (SAGE tag count) [2]: 30

Sequence: TATGATGAGC (chemistry not fully specified)
- AD1 (SAGE tag count) (adenoma library 1): 2
- AD2 (SAGE tag count) (adenoma library 2): 2
- CA1 (SAGE tag count) (cancer library 1): 1
- CA2 (SAGE tag count) (cancer library 2): 5
- NC1 (SAGE tag count) [1]: 13
- NC2 (SAGE tag count) [2]: 21

Sequence: TCACAGTGCC (chemistry not fully specified)
- AD1 (SAGE tag count) (adenoma library 1): 3
- AD2 (SAGE tag count) (adenoma library 2): 1
- CA1 (SAGE tag count) (cancer library 1): 3
- CA2 (SAGE tag count) (cancer library 2): 4
- NC1 (SAGE tag count) [1]: 26
- NC2 (SAGE tag count) [2]: 7

Sequence: TCACCGGTCA (chemistry not fully specified)
- AD1 (SAGE tag count) (adenoma library 1): 10
- AD2 (SAGE tag count) (adenoma library 2): 10
- CA1 (SAGE tag count) (cancer library 1): 5
- CA2 (SAGE tag count) (cancer library 2): 6
- NC1 (SAGE tag count) [1]: 118
- NC2 (SAGE tag count) [2]: 75

Sequence: TCAGAGCGCT (chemistry not fully specified)
- AD1 (SAGE tag count) (adenoma library 1): 0
- AD2 (SAGE tag count) (adenoma library 2): 7
- CA1 (SAGE tag count) (cancer library 1): 0
- CA2 (SAGE tag count) (cancer library 2): 1
- NC1 (SAGE tag count) [1]: 5
- NC2 (SAGE tag count) [2]: 21
